Assay results reported in patent US20250346616A1 (DIZAL (JIANGSU) PHARMACEUTICAL CO., LTD., priority 2022, published 2025).
pIC50: −log10 of the molar value.

Legend:
Recombinant ROCK2 = Recombinant ROCK2 (Homo sapiens (Human), UniProt O75116); assay: Lance Ultra Kinase Assay, ROCK2 inhibition; assay type: biochemical; details: ATP at Km, 30 min pre-incubation, 1 h reaction
pMLC2 = assay: Cellular PD assay, pMLC2 in PASMC (western blot); assay type: cell-based; details: PASMC, 0.5 h; Human Pulmonary Artery Smooth Muscle Cells, 30 min incubation
Protocol: (§1) PASMC (Human Pulmonary Artery Smooth Muscle Cells) were grown in Smooth Muscle Cell Growth medium (Promocell #C-22162). The cells were resuspended at 3×10^5 cells per well in 6-well plate in Smooth Muscle Cell Growth medium (Promocell #C-22162) and incubated compound concentration range: (10000/1111/333/111/37/12.3/4.1/0.41/0 nM) for 30 min.
(§2) Cells were then placed on ice and washed with ice-cold PBS. Cell lysates were prepared with 2×SDS. Separate proteins by SDS-PAGE 2 hr, transfer of proteins form gel to membrane 90 min, Blocking the membrane with 5% milk 1 hr and incubation in primary antibody overnight at 4° C., Incubate the membrane in HRP-conjugated secondary antibody diluted in blocking buffer (1:2000) for 1 hour at room temperature. Detection using Amersham ECL plus western blotting detection system (LAS4000). The purified product was analysed by SDS PAGE and the amount of target protein calculated by gray scanning by Multi-Gauge V3.0 software.

Recombinant ROCK1 = Recombinant ROCK1 (Homo sapiens (Human), UniProt Q13464); assay: Lance Ultra Kinase Assay, ROCK1 inhibition; assay type: biochemical; details: ATP at Km, 30 min pre-incubation, 1 h reaction
Chain of Recombinant ROCK1 (Q13464 whole entry): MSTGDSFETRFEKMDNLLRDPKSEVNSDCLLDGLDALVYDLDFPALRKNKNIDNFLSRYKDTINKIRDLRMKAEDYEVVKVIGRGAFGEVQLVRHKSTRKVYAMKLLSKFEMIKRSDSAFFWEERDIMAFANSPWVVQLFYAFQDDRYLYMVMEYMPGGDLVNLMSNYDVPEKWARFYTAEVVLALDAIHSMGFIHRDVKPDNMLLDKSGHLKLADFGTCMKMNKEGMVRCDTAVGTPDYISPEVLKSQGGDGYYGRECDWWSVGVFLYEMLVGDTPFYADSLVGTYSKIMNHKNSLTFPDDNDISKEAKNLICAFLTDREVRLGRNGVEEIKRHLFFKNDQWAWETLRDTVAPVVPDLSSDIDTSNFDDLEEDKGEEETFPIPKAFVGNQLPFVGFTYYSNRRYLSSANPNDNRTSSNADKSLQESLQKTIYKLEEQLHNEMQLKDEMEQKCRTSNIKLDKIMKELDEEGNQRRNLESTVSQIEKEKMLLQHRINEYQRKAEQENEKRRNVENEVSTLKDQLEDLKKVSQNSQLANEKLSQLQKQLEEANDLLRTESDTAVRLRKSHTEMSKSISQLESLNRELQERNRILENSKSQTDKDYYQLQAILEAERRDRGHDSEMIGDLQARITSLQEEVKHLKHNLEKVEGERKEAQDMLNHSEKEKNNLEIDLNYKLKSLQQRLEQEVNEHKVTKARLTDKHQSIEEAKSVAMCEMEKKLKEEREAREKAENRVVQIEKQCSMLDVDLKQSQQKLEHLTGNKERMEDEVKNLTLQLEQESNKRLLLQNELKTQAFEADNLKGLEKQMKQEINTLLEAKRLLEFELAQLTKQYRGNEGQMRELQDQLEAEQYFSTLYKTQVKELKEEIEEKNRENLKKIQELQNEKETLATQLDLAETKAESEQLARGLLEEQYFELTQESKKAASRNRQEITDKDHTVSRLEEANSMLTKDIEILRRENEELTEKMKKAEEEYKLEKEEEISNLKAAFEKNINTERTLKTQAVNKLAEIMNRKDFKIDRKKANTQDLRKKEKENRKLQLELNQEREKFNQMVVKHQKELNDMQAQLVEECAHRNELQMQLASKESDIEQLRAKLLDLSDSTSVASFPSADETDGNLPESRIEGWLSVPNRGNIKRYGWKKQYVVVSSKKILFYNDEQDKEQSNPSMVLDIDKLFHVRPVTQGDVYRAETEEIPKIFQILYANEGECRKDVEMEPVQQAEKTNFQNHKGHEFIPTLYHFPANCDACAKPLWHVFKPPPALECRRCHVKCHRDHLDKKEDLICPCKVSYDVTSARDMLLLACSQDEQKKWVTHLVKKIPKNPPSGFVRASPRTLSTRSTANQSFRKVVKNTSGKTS

HepG2 cells = assay: Cell-based phospholipidosis assay (LipidTOX Red); details: Homo sapiens, 24 h, LipidTOX Red dye
Protocol: HepG2 cells were dispensed into Collagen I-coated 96-well black wall/clear bottom assay plates at 5000 cells/90 μL/well.
The assay plates were then incubated at 37° C. for 24 h, […] of 8% paraformaldehyde (4% final) fixative solution containing 8 μg/ml Hoechst 33342 (4 ug/mL final) in DPBS was added to each well. After incubation at room temperature for 25 min, the assay plates were washed with DPBS. The assay plates were sealed and stored at 4° C. before imaging.
The fluorescence intensities (595 nm excitation, 615 nm emission for LipidTOX Red; 352 nm excitation, 461 nm emission for Hoechst 33342) were measured using an High Content Screening System (Operetta, PerkinElmer) with a 10×Fluor objective. […] Average intensities were subjected to Prism and EC50 were calculated.

pMYPT1 = assay: Cellular PD assay, pMYPT1 in PASMC (western blot); assay type: cell-based; details: PASMC, 0.5 h; Human Pulmonary Artery Smooth Muscle Cells, 30 min incubation
Protocol: as §1, §2

Chain of Recombinant ROCK2 (O75116 whole entry): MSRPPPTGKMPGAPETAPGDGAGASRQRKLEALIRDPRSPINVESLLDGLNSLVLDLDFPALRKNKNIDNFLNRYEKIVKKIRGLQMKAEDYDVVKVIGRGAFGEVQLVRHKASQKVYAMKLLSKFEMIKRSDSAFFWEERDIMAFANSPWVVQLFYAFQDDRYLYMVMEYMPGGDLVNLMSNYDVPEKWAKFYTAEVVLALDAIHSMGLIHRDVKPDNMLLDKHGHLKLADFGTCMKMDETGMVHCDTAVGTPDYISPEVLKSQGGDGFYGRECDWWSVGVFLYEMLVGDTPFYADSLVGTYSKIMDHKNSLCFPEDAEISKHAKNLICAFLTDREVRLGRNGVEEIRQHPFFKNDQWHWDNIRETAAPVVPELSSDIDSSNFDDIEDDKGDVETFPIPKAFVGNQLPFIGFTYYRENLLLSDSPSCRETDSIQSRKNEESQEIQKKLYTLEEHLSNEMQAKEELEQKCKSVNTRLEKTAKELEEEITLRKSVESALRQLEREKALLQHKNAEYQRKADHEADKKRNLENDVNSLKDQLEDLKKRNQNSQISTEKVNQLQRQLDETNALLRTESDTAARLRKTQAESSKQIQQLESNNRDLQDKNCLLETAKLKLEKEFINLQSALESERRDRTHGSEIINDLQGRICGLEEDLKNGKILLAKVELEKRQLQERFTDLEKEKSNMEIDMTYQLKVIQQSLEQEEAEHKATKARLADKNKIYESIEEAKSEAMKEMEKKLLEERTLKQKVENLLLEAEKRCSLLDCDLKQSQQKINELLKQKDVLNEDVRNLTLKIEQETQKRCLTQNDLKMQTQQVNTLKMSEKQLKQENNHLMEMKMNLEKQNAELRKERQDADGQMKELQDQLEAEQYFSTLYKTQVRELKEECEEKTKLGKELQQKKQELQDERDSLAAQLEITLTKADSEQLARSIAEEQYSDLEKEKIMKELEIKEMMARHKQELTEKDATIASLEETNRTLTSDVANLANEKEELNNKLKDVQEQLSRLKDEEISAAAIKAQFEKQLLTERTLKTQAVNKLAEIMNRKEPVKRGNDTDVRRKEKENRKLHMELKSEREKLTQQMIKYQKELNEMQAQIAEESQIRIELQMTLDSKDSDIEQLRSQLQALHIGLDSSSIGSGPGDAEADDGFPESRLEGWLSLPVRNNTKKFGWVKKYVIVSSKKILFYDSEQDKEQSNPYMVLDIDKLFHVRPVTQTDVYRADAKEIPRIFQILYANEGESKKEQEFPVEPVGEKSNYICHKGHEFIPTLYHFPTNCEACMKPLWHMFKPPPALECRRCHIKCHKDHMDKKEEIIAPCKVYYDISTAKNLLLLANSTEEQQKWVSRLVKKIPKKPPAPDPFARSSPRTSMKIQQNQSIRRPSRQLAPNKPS

Row | Compound | pIC50 (Recombinant ROCK2) | IC50 (pMLC2) | pIC50 (Recombinant ROCK1) | EC50 (HepG2 cells) | IC50 (pMYPT1)
1 | N#Cc1cccc(C(CN)C(=O)Nc2cccc3c(-c4cn[nH]c4)c[nH]c23)c1 (single isomer, unassigned) [Example 20, N-(3-(1H-pyrazol-4-yl)-1H-indol-7-yl)-3-amino-2-(3-cyanophenyl)propanamide] | 8.89 | 38 nM | 8.55 | > 200 µM | 41 nM
2 | N#Cc1ccc(C(CN)C(=O)Nc2cccc3c(-c4cn[nH]c4)c[nH]c23)cc1 (single isomer, unassigned) [Example 59, N-(3-(1H-pyrazol-4-yl)-1H-indol-7-yl)-3-amino-2-(4-cyanophenyl)propanamide] | 9.08 | 61 nM | 8.57 | > 66.6 µM | 155 nM
3 | NCC(C(=O)Nc1cccc2c(-c3cn[nH]c3)c[nH]c12)c1cccnc1 (single isomer, unassigned) [Example 32, N-(3-(1H-pyrazol-4-yl)-1H-indol-7-yl)-3-amino-2-(pyridin-3-yl)propanamide] | 9.62 | 42 nM | 9.26 | > 200 µM | 62 nM
4 | COc1cccc([C@@H](N)C(=O)Nc2cccc3c(-c4cn[nH]c4)c[nH]c23)c1 [Example 42, (2R)-2-amino-2-(3-methoxyphenyl)-N-[3-(1H-pyrazol-4-yl)-1H-indol-7-yl]acetamide] | 10.00 | 3 nM | 9.74 | > 200 µM | 2.8 nM
5 | NCC(C(=O)Nc1cccc2c(-c3cn[nH]c3)c[nH]c12)C1CCOCC1 (single isomer, unassigned) [Example 26, N-(3-(1H-pyrazol-4-yl)-1H-indol-7-yl)-3-amino-2-(tetrahydro-2H-pyran-4-yl)propanamide] | 9.02 | 85 nM | 8.85 | > 200 µM | 153 nM
6 | NCC(C(=O)Nc1cccc2c(-c3cn[nH]c3)c[nH]c12)c1ccc(CO)cc1 (single isomer, unassigned) [Example 3, N-(3-(1H-pyrazol-4-yl)-1H-indol-7-yl)-3-amino-2-(4-(hydroxymethyl)phenyl)propanamide] | 9.77 | 46 nM | 9.48 | > 200 µM | 99 nM
7 | CN1CCN(CC(C(=O)Nc2cccc3c(-c4cn[nH]c4)c[nH]c23)c2ccccc2)CC1 (single isomer, unassigned) [Example 38, N-(3-(1H-pyrazol-4-yl)-1H-indol-7-yl)-3-(4-methylpiperazin-1-yl)-2-phenylpropanamide] | 9.59 | 8.2 nM | 9.36 | 6.23 µM | 13 nM
8 | COc1cccc(C(CN)C(=O)Nc2cccc3c(-c4cn[nH]c4)c[nH]c23)c1 (single isomer, unassigned) [Example 18, N-(3-(1H-pyrazol-4-yl)-1H-indol-7-yl)-3-amino-2-(3-methoxyphenyl)propanamide] | 9.85 | 4.2 nM | 9.52 | 10.9 µM | 5.6 nM
